The text below walks through data of US20240092791A1, “DIHYDROFUROPYRIDINE DERIVATIVES AS RHO-KINASE INHIBITORS” (CHIESI FARMACEUTICI S.P.A., priority 2020, published 2024).

In one assay the target is Rho kinase 1 (ROCK1) (Homo sapiens, UniProt Q13464). The assay is described as follows: In vitro inhibitory activity assay ROCK1 (ADP-Glo). The format is biochemical. The settings on record: ATP 200 μM, Cheng-Prusoff from IC50; read-out: ROCK 1 (Ki, range of activity). The method, then:
(§1) The effectiveness of compounds of the present invention to inhibit Rho kinase activity can be determined in a 10 μl assay containing 40 mM Tris pH7.5, 20 mM MgCl2 0.1 mg/mL BSA, 50 μM DTT and 2.5 μM peptide substrate (Myelin Basic Protein) using an ADP-Glo kit (Promega). Compounds were dissolved in DMSO such that the final concentration of DMSO was 1% in the assay. All reactions/incubations are performed at 25° C. Compound (2 ul) and either Rho kinase 1 or 2 (4 μl) were mixed and incubated for 30 mins. Reactions were initiated by addition of ATP (4μ1) such that the final concentration of ATP in the assay was 200 μM. After a 1 hour incubation 10 μl of ADP-Glo Reagent was added and after a further 1 hour incubation 20 ul of Kinase Detection Buffer was added and the mixture incubated for a further 45 minutes. The luminescent signal was measured on a luminometer. […] Compounds were tested in dose-response format and the inhibition of kinase activity was calculated at each concentration of compound. To determine the IC50 (concentration of compound required to inhibit 50% of the enzyme activity) data were fit to a plot of % inhibition vs Log10 compound concentration using a sigmoidal fit with a variable slope and fixing the maximum to 100% and the minimum to 0%. To determine the Ki values the Cheng-Prusoff equation was utilized (Ki=IC50/(1+[S]/Km).

Another assay has as its target PKA (Homo sapiens, UniProt P17612). The assay is described as follows: In vitro inhibitory activity assay for PKA (ADP-Glo), reported as selectivity ratio vs ROCK2. The format is biochemical. The settings on record: Ki value for PKA divided by Ki value of ROCK2. On the procedure:
The effectiveness of compounds of the present invention to inhibit PKA activity can be determined in a 10 μl assay containing 40 mM Tris pH7.5, 20 mM MgCl2 0.1 mg/ml BSA, 50 μM DTT and 260 μM peptide substrate (kemptide) using an ADP-Glo kit (Promega). Compounds were dissolved in DMSO such that the final concentration of DMSO was 1% in the assay. All reactions/incubations are performed at 25° C. Compound and PKA enzyme (6 μl) were mixed and incubated for 30 mins. Reactions were initiated by addition of ATP (4 μl ) such that the final concentration of ATP in the assay was 10 μM. After a 30 minute incubation 10 μl of ADP-Glo Reagent was added and after a further 1 hour incubation 20 μl of Kinase Detection Buffer was added and the mixture incubated for a further 45 minutes. The luminescent signal was measured on a luminometer. […] Compounds were tested in dose-response format and the inhibition of kinase activity was calculated at each concentration of compound. To determine the IC50 (concentration of compound required to inhibit 50% of the enzyme activity) data were fit to a plot of % inhibition vs Logio compound concentration using a sigmoidal fit with a variable slope and fixing the maximum to 100% and the minimum to 0%. To determine the Ki values the Cheng-Prusoff equation was utilized (Ki=IC50/(1+[S]/Km).
In vitro inhibitory activities for PKA were reported as selectivity ratio vs. ROCK-2.
Background: ADP-Glo turns the ADP formed in a reaction into a luminescent signal.

In assay [1] the test system is cch-evoked bronchoconstriction. Briefly: Experimental bronchospasm (carbachol-induced bronchoconstriction, Konzett & Roessler). The following applies: for inhibition in vivo at 0.01 mg/kg / inhibition in vivo at 0.003 mg/kg: iv, rat, 1 hour after administration, carbachol 80 μg/kg i.v., read-out: Inhibition % (±s.e. mean) of cch-evoked bronchoconstriction; for inhibition in vivo at 0.01 mg/kg: dose 10 μg/Kg intratracheal; for inhibition in vivo at 0.003 mg/kg: dose 3 μg/Kg intratracheal. The format is in vivo, Male CD Sprague Dawley rats. On the procedure:
Male CD Sprague Dawley rats (220-250 g) were purchased from Charles River Laboratories Italy (Calco, Lecco). Prior to use animals were acclimated for at least 5 days 20 to the local vivarium conditions (room temperature: 20-24° C.; relative humidity: 40-70%), having free access to standard rat chow and softened tap water. All the procedures were performed in animal operating rooms according to ethical guidelines for the conduct of animal research (D. L.vo 116/92).
Rats were anaesthetized with a combination of anesthetics (Zoletil 20 mg/kg+Xylazine 5 mg/kg, ip) for the i.t. administration. A laryngoscope was moved forward into the mouth to visualize the trachea and guide the insertion of the tip of a custom-made small diameter cannula directly into the trachea and located 1-2 mm above the bifurcation.
In order to assess the residual inhibitory activity of test compounds 1 hour after their administration, rats were surgically prepared. Body temperature was kept constant at 37° C. by a heated blanket.
The trachea was cannulated and the lungs were ventilated artificially with a constant volume ventilator (rodent ventilator mod. 7025, Ugo Basile, Comerio, Varese, Italy) at a frequency of 80 strokes/min and at a tidal volume of 10 ml/kg. To avoid spontaneous breathing, the animals were injected intravenously (i.v.) with pancuronium bromide (2 mg/kg).
Bronchoconstriction was induced by the i.v. injection of carbachol (cch) 80 μg/kg. In control experiments, repeated injections of this dose produced reproducible short-lasting (1-2 min duration) bronchospasms. Bronchoconstriction, quantified as a reduction of tidal volume, was evaluated according to the method described by Konzett & Roessler (1). Systemic blood pressure and changes in airway resistance were monitored with a digital pressure transducer.
After stabilisation of artificial breathing and blood pressure, animals were injected (i.v.) with cch every 3 min, until 3 stable and reproducible basal responses were obtained. […] The effect of test compounds was 15 expressed as % inhibition of cch-evoked bronchoconstriction in time-matched, vehicle-treated, animals (controls).
Tested compounds were dissolved in dH2O and 1% Tween-80 or 0,001% HCl and further diluted to target concentrations. Tested compounds were instilled locally into the trachea in a volume of 125 μl.
All data are presented as mean±s.e.mean. The % inhibition of experimental bronchospasm was calculated comparing the drug-treated with the vehicle-treated control animals. Data analysis was performed using GraphPad Prism software.

Another assay deals with Rho kinase 2 (ROCK2) (Homo sapiens, UniProt O75116). The assay is described as follows: In vitro inhibitory activity assay ROCK2 (ADP-Glo). The format is biochemical. The settings on record: ATP 200 μM, Cheng-Prusoff from IC50; read-out: ROCK2 (Ki, range of activity). On the procedure: as §1

Bounds are passed on as bounds.

By Ki is commonly meant the dissociation constant of the complex between target and ligand, obtained from inhibition or displacement.

Rho kinase 1 (ROCK1), sequence (Q13464 whole entry): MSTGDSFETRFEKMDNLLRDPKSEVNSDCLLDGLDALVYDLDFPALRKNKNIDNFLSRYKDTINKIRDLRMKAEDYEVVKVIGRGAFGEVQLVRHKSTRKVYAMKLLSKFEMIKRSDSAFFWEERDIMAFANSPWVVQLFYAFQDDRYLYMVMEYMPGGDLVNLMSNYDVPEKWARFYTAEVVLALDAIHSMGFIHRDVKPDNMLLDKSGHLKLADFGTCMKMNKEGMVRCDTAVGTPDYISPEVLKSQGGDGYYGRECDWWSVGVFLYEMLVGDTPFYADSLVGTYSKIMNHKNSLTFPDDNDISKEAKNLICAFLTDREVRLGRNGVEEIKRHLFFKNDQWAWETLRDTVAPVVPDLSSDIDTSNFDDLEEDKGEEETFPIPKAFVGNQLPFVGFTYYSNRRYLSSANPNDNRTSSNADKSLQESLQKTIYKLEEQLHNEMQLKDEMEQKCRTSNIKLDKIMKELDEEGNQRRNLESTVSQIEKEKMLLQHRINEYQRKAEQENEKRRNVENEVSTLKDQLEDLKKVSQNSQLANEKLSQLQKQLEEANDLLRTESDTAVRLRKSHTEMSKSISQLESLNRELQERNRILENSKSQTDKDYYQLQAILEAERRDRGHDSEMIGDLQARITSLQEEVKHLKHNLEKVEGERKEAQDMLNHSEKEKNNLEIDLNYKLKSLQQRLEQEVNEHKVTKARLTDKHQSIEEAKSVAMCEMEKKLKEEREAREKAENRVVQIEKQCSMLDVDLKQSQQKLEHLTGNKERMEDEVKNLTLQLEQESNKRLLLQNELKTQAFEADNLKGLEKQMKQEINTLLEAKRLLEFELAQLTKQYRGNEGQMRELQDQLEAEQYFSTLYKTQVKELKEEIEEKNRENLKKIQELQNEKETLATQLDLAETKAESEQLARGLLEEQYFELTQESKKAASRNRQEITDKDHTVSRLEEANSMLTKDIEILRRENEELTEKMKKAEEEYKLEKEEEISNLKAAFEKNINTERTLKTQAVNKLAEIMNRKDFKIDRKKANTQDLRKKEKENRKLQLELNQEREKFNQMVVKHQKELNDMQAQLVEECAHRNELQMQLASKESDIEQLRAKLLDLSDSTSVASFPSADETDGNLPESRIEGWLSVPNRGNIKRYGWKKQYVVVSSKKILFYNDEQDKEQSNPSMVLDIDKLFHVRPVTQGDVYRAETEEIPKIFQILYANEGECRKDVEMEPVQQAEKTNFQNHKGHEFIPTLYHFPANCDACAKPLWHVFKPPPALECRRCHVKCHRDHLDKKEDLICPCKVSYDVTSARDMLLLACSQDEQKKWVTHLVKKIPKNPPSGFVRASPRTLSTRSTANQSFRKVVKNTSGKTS
Rho kinase 2 (ROCK2), sequence (O75116 whole entry): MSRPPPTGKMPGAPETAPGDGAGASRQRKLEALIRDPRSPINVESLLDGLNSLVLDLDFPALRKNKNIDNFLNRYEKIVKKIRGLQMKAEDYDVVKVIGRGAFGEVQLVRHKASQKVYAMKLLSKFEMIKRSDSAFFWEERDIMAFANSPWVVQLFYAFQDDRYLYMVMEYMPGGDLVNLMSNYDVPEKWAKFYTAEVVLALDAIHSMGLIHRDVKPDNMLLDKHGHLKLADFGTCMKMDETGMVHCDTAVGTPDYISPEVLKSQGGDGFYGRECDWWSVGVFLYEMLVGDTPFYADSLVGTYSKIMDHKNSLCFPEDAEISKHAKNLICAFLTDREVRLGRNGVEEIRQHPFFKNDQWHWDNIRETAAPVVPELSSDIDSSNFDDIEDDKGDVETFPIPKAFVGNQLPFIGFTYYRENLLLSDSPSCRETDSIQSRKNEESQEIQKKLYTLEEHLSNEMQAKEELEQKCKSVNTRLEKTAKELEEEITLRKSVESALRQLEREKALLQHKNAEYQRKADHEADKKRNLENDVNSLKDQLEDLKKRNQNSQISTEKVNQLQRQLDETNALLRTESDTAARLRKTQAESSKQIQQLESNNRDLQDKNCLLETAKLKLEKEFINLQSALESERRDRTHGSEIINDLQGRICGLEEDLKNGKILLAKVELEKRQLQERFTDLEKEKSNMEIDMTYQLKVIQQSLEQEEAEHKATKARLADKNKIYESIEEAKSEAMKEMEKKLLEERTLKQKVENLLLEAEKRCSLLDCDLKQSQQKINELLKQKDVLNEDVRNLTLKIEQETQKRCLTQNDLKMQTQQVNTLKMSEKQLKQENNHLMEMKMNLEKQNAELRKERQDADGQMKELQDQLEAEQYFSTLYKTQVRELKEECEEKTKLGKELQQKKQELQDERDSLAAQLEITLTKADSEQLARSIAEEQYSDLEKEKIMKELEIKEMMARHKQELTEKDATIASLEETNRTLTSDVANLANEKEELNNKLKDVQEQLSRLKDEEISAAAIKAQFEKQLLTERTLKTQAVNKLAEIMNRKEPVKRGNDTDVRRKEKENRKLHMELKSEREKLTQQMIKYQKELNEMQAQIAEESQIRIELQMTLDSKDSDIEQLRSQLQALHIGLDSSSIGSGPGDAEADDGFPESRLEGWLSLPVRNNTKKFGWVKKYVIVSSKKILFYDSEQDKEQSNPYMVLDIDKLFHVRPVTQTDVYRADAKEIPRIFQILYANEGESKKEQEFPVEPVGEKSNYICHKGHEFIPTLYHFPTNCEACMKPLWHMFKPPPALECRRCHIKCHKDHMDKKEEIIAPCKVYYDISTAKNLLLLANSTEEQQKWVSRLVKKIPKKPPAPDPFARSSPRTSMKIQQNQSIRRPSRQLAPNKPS

In the case of `COc1ccc(NC(=O)c2cccc(CNc3ncc(-c4ccnc(N)n4)c4c3CCO4)c2)nc1` [Example 51, 3-(((7-(2-Aminopyrimidin-4-yl)-2,3-dihydrofuro[3,2-c]pyridin-4-yl)amino)methyl)-N-(5-methoxypyridin-2-yl)benzamide], the Ki at Rho kinase 1 (ROCK1) and on Rho kinase 2 (ROCK2) was at most 3 nM each time. The “Ratio (PKA/ROCK2)” value at PKA was “*** (ratio≥10)”. In addition, the inhibition in vivo at 0.01 mg/kg in assay [1] turned out to be 3.1 ± 14.8%. Moreover, in assay [1] (rat bronchospasm test, internal comparator vs compounds with bulky moiety W), the “activity as bronchodilator (in words)” value is on record as “markedly lower activity as bronchodilator”.

Take `Nc1nccc(-c2cnc(NCc3cccc(C(=O)Nc4ccc(OC5CCNCC5)cn4)c3)c3c2OCC3)n1` [Example 71, 3-(((7-(2-aminopyrimidin-4-yl)-2,3-dihydrofuro[3,2-c]pyridin-4-yl)amino)methyl)-N-(5-(piperidin-4-yloxy)pyridin-2-yl)benzamide]: the Ki on Rho kinase 1 (ROCK1) and at Rho kinase 2 (ROCK2) was at most 3 nM throughout. In addition, at PKA, the “Ratio (PKA/ROCK2)” value is recorded as “*** (ratio≥10)”. Also, the inhibition in vivo at 0.003 mg/kg in assay [1] came to 47.9 ± 7.7%.

With `Nc1nccc(-c2cnc(NCc3cccc(C(=O)Nc4ccc(N5CCNCC5)cn4)c3)c3c2OCC3)n1` [Example 53, 3-(((7-(2-aminopyrimidin-4-yl)-2,3-dihydrofuro[3,2-c]pyridin-4-yl)amino)methyl)-N-(5-(piperazin-1-yl)pyridin-2-yl)benzamide], the Ki on Rho kinase 1 (ROCK1) and on Rho kinase 2 (ROCK2) was at most 3 nM each time. Further, the “Ratio (PKA/ROCK2)” value on PKA is reported as “*** (ratio≥10)”. In addition, the inhibition in vivo at 0.01 mg/kg in assay [1] came out at 70.7 ± 3.4%.

As to `CNCc1ccc(NC(=O)c2cccc(CNc3ncc(-c4ccnc(N)n4)c4c3CCO4)c2)nc1` [Example 84, 3-(((7-(2-Aminopyrimidin-4-yl)-2,3-dihydrofuro[3,2-c]pyridin-4-yl)amino)methyl)-N-(5-((methylamino)methyl)pyridin-2-yl)benzamide], the Ki at Rho kinase 1 (ROCK1) and on Rho kinase 2 (ROCK2) was at most 3 nM in each case. The “Ratio (PKA/ROCK2)” value at PKA is “*** (ratio≥10)”. In addition, the inhibition in vivo at 0.01 mg/kg in assay [1] turned out to be 89.5 ± 2%.

Turning to `CN1C[C@H]2C[C@@H]1CN2c1ccc(NC(=O)c2cccc(CNc3ncc(-c4ccnc(N)n4)c4c3CCO4)c2)nc1` [Example 74], the Ki on Rho kinase 1 (ROCK1) and at Rho kinase 2 (ROCK2) was at most 3 nM in each case. For the same compound, on PKA, the “Ratio (PKA/ROCK2)” value was “*** (ratio≥10)”. Moreover, the inhibition in vivo at 0.003 mg/kg in assay [1] came out at 77.7 ± 4%.

On to `CN1CCN(C)C(COc2ccc(NC(=O)c3cccc(CNc4ncc(-c5ccnc(N)n5)c5c4CCO5)c3)nc2)C1` (single isomer, unassigned) [Example 82, 3-(((7-(2-aminopyrimidin-4-yl)-2,3-dihydrofuro[3,2-c]pyridin-4-yl)amino)methyl)-N-(5-((1,4-dimethylpiperazin-2-yl)methoxy)pyridin-2-yl)benzamide], for which the Ki on Rho kinase 1 (ROCK1) and at Rho kinase 2 (ROCK2) was at most 3 nM each time. Further, at PKA, the “Ratio (PKA/ROCK2)” value is on record as “*** (ratio≥10)”. The inhibition in vivo at 0.01 mg/kg in assay [1] was determined as 69.7 ± 3.4%.

In the case of `Nc1nccc(-c2cnc(NCc3cccc(C(=O)Nc4ccc(OC[C@]5(F)CCNC5)cn4)c3)c3c2OCC3)n1` [Example 79, (S)-3-(((7-(2-aminopyrimidin-4-yl)-2,3-dihydrofuro[3,2-c]pyridin-4-yl)amino)methyl)-N-(5-((3-fluoropyrrolidin-3-yl)methoxy)pyridin-2-yl)benzamide], the Ki on Rho kinase 1 (ROCK1) and on Rho kinase 2 (ROCK2) was at most 3 nM each time. Besides, the “Ratio (PKA/ROCK2)” value on PKA is listed as “*** (ratio≥10)”. In addition, the inhibition in vivo at 0.01 mg/kg in assay [1] was found to be 58 ± 6%.

For `C[C@@H]1CNCCN1c1ccc(NC(=O)c2cccc(CNc3ncc(-c4ccnc(N)n4)c4c3CCO4)c2)nc1` [Example 69, (R)-3-(((7-(2-aminopyrimidin-4-yl)-2,3-dihydrofuro[3,2-c]pyridin-4-yl)amino)methyl)-N-(5-(2-methylpiperazin-1-yl)pyridin-2-yl)benzamide], the Ki at Rho kinase 1 (ROCK1) and on Rho kinase 2 (ROCK2) was at most 3 nM in each case. In addition, the “Ratio (PKA/ROCK2)” value on PKA is on record as “*** (ratio≥10)”. Besides, the inhibition in vivo at 0.01 mg/kg in assay [1] worked out at 74.8 ± 7.8%.

Turning to `CN(C)CCOc1ccc(NC(=O)c2cccc(CNc3ncc(-c4ccnc(N)n4)c4c3CCO4)c2)nc1` [Example 52, 3-(((7-(2-aminopyrimidin-4-yl)-2,3-dihydrofuro[3,2-c]pyridin-4-yl)amino)methyl)-N-(5-(2-(dimethylamino)ethoxy)pyridin-2-yl)benzamide], the Ki on Rho kinase 1 (ROCK1) and on Rho kinase 2 (ROCK2) was at most 3 nM each time. Also, at PKA, the “Ratio (PKA/ROCK2)” value is reported as “*** (ratio≥10)”. Moreover, the inhibition in vivo at 0.01 mg/kg in assay [1] was 51.5 ± 6.2%.

For the compound `CN1CCN(Cc2ccc(NC(=O)c3cccc(CNc4ncc(-c5ccnc(N)n5)c5c4CCO5)c3)nc2)CC1` [Example 78, 3-(((7-(2-aminopyrimidin-4-yl)-2,3-dihydrofuro[3,2-c]pyridin-4-yl)amino)methyl)-N-(5-((4-methylpiperazin-1-yl)methyl)pyridin-2-yl)benzamide], the Ki at Rho kinase 1 (ROCK1) and at Rho kinase 2 (ROCK2) was at most 3 nM in each case. Besides, the “Ratio (PKA/ROCK2)” value at PKA is reported as “*** (ratio≥10)”. Further, the inhibition in vivo at 0.01 mg/kg in assay [1] was 68.8 ± 8.6%.

Take `CN(C)CCC(=O)N1CCN(c2ccc(NC(=O)c3cccc(CNc4ncc(-c5ccnc(N)n5)c5c4CCO5)c3)nc2)CC1` [Example 66, 3-(((7-(2-aminopyrimidin-4-yl)-2,3-dihydrofuro[3,2-c]pyridin-4-yl)amino)methyl)-N-(5-(4-(3-(dimethylamino)propanoyl)piperazin-1-yl)pyridin-2-yl)benzamide]: the Ki at Rho kinase 1 (ROCK1) and on Rho kinase 2 (ROCK2) was at most 3 nM in each case. On PKA, the “Ratio (PKA/ROCK2)” value was “*** (ratio≥10)”. Moreover, the inhibition in vivo at 0.01 mg/kg in assay [1] worked out at 79.4 ± 7.3%.

Turning to `CN(C)CCNc1ccc(NC(=O)c2cccc(CNc3ncc(-c4ccnc(N)n4)c4c3CCO4)c2)nc1` [Example 77, 3-(((7-(2-aminopyrimidin-4-yl)-2,3-dihydrofuro[3,2-c]pyridin-4-yl)amino)methyl)-N-(5-((2-(dimethylamino)ethyl)amino)pyridin-2-yl)benzamide], the Ki on Rho kinase 1 (ROCK1) and at Rho kinase 2 (ROCK2) was at most 3 nM throughout. The “Ratio (PKA/ROCK2)” value on PKA is “*** (ratio≥10)”. Also, the inhibition in vivo at 0.003 mg/kg in assay [1] is 79%.
